For data set [1], the system named is male dd-strain mice. The experiment in a line: Maximal electroshock seizure test. It counts as in vivo. The settings on record: Mus musculus, po, 1 h, P.O., shock 60 minutes after administration, suppression of tonic extensor in at least 3 of 5 mice, read-out: MED for anticonvulsive action, Maximal electroshock seizure test. Here is the method: (1) Maximal electroshock seizure test
Groups of mice, each consisting of 5 male dd-strain mice having a weight of 20±1 g were orally administered with some of said compounds and 60 minutes thereafter, an electric current of 2,000 V, 50 mA was passed to both eyes of the mouse for 0.2 seconds to observe occurrence of tonic extensor. Suppression of tonic extensor occurrence on at least three mice was regarded as effective, and MED (minimum effective dose) for suppressing the convulsion was determined.

In data set [2] the test system is male dd-strain mice. The experiment in a line: Pentetrazol-induced seizure test. It counts as in vivo. The note with it: Mus musculus, po, P.O., 120 mg/kg pentetrazol s.c., suppression of clonic seizure in at least 3 of 5 mice, read-out: MED for anticonvulsive action, Pentetrazol-induced seizure test. How it is done: (2) Pentetrazol-induced seizure test
Groups of mice, each consisting of 5 male dd-strain mice having a weight of 20±1 g were subcutaneously administered by 120 mg/kg of pentetrazol, and occurrence of clonic seizure was observed. Suppression of clonic seizure occurrence on at least three mice was regarded as effective, and MED was determined.

The nature of the next data set: Acute toxicity test. The settings on record: mouse, in vivo, po; P.O., mice, suspension in 0.3% CMC, 7 days after administration.
The subject of another data set is male Carworth Farm mice. Description: Anticonvulsive action: MES (maximum electroconvulsive procedure) and subcutaneous pentylenetetrazole seizure tests, combined evaluation. It counts as in vivo. The settings on record: Mus musculus, sc, dose levels 30, 100, 300 (600) mg/kg, MES and 85 mg/kg s.c. pentylenetetrazole tests, read-out: Evaluation (anticonvulsant activity class). How it is done:
The present test was performed in male Carworth Farm mice. All compounds were tested at least 3 dose levels (30, 100, 300 mg/kg) with a fourth dose of 600 mg/kg being performed when there was sufficient quantity available. The vehicles used to solubilize each compound were 30% aqueous polyethylene glycol solution (Compound Nos. 31 to 38, 45, 47 and 48) and 0.9% saline (Compound Nos. 44 and 46). The following two tests were performed. MES (Maximum electroconvulsive procedure) Maximal electroshock seizures were elicited with a 60 cycle alternating current of 50 mA intensity (5-7 times that necessary to elicit minimal electroshock seizures) delivered for 0.2 sec via corneal electrodes. A drop of 0.9% saline was instilled in the eye prior to application of the electrodes in order to prevent the death of the animal. Abolition of the hind limb tonic extension component of the seizure was defined as protection and results were expressed as: [formula] First, 85 mg/kg of pentylenetetrazole (produces seizures in greater than 95% of mice) was administered as a 0.5% solution subcutaneously in the posterior midline. […] Failure to observe even a threshold seizure (a single episode of clonic spasms of at least 5 sec duration) was defined as protection and the results were expressed as: [formula] (2) Evaluation method All results were classified into one of the following three evaluation standard: .circle.1 Anticonvulsant activity at 100 mg/kg or less .circle.2 Anticonvulsant activity at doses greater than 100 mg/kg, or anticonvulsant activity at 100 mg/kg not reinforced by similar activity at 300 mg/kg .circle.3 No anticonvulsant activity at doses up to and including 300 mg/kg

Turning to `CN1CCC(=O)N(c2ccccc2Cl)C1=O` [Compound 29, 3-(2-chlorophenyl)-1-methyl-dihydrouracil], the minimal effective dose in the data set on male dd-strain mice [1] and with male dd-strain mice [2] was 150 mg/kg throughout. The LD50 at 168 h in “Acute toxicity test” was > 300 mg/kg.

On to `CN1CCC(=O)N(c2ccccc2F)C1=O` [Compound 38, 3-(2-fluorophenyl)-1-methyl-dihydrouracil], for which the minimal effective dose in the data set with male Carworth Farm mice is > 100 mg/kg.

For `CN1C(=O)CCN(c2ccc(Cl)cc2Cl)C1=O` [Compound 31, 1-(2,4-dichlorophenyl)-3-methyl-dihydrouracil], the results for the minimal effective dose with male dd-strain mice [1], in the data set with male Carworth Farm mice and in the data set on male dd-strain mice [2] were 100 mg/kg, ≤ 100 mg/kg and 100 mg/kg, respectively. Besides, the LD50 at 168 h in the data set “Acute toxicity test” was > 300 mg/kg.

`CN1CCC(=O)N(c2cccc3ccccc23)C1=O` [Compound 47, 1-methyl-3-α-naphthyl-dihydrouracil]: the minimal effective dose in the data set with male dd-strain mice [1] was 100 mg/kg; in the data set with male Carworth Farm mice it was ≤ 100 mg/kg; in the data set on male dd-strain mice [2], 200 mg/kg. Moreover, the LD50 at 168 h in “Acute toxicity test” is > 300 mg/kg.

For the compound `CN1C(=O)CCN(c2cccc(C(F)(F)F)c2)C1=O` [Compound 7, 3-methyl-1-(3-trifluoromethylphenyl)-dihydrouracil], the minimal effective dose with male dd-strain mice [1] and in the data set on male dd-strain mice [2] was 100 mg/kg in each case. In addition, the LD50 at 168 h in the data set “Acute toxicity test” is > 1000 mg/kg.

Turning to `CN1CCC(=O)N(c2cccc(Cl)c2Cl)C1=O` [Compound 34, 3-(2,3-dichlorophenyl)-1-methyl-dihydrouracil], the minimal effective dose was 150 mg/kg in the data set on male dd-strain mice [1], ≤ 100 mg/kg with male Carworth Farm mice and 300 mg/kg in the data set on male dd-strain mice [2]. Besides, in “Acute toxicity test”, the LD50 at 168 h was > 300 mg/kg.

For `CCOC(=O)c1ccccc1N1C(=O)CCN(C)C1=O` [Compound 48, 3-(2-ethoxycarbonylphenyl)-1-methyl-dihydrouracil], the minimal effective dose with male Carworth Farm mice was ≤ 100 mg/kg.

Regarding `CN1C(=O)CCN(c2ccc(C(F)(F)F)cc2)C1=O` [Compound 33, 3-methyl-1-(4-trifluoromethylphenyl)-dihydrouracil], the values for the minimal effective dose in the data set on male dd-strain mice [1], with male Carworth Farm mice and in the data set with male dd-strain mice [2] were 100 mg/kg, ≤ 100 mg/kg and 300 mg/kg, respectively. Further, the LD50 at 168 h in the data set “Acute toxicity test” is > 300 mg/kg.

On to `CN1CCC(=O)N(c2ccccc2N)C1=O.Cl` [Compound 46, 3-(2-aminophenyl)-1-methyl-dihydrouracil hydrochloride], for which the minimal effective dose with male Carworth Farm mice is > 100 mg/kg.

As for `CN1CCC(=O)N(c2ccccc2[N+](=O)[O-])C1=O` [Compound 45, 1-methyl-3-(2-nitrophenyl)-dihydrouracil], in the data set with male Carworth Farm mice, the minimal effective dose is > 100 mg/kg.

On to `CN1C(=O)CCN(c2ccc(N)cc2)C1=O.Cl` [Compound 44, 1-(4-aminophenyl)-3-methyl-dihydrouracil hydrochloride], for which the minimal effective dose in the data set with male Carworth Farm mice was ≤ 100 mg/kg.

For the compound `Cc1cccc(Cl)c1N1C(=O)CCN(C)C1=O` [Compound 37, 3-(2-chloro-6-methylphenyl)-1-methyl-dihydrouracil], in the data set with male Carworth Farm mice, the minimal effective dose was > 100 mg/kg.

In the case of `CN1CCC(=O)N(c2cc(Cl)ccc2Cl)C1=O` [Compound 24, 3-(2,5-dichlorophenyl)-1-methyl-dihydrouracil], the minimal effective dose in the data set with male dd-strain mice [1] and in the data set on male dd-strain mice [2] was 100 mg/kg throughout. The 50% lethal dose (LD50) at 168 h in the data set “Acute toxicity test” is > 300 mg/kg.

As to `CN1CCC(=O)N(c2ccc(Cl)cc2Cl)C1=O` [Compound 36, 3-(2,4-dichlorophenyl)-1-methyl-dihydrouracil], the values for the minimal effective dose in the data set with male dd-strain mice [1], in the data set with male Carworth Farm mice and in the data set with male dd-strain mice [2] were 100 mg/kg, ≤ 100 mg/kg and 200 mg/kg, respectively. Also, the LD50 at 168 h in “Acute toxicity test” was > 300 mg/kg.

Consider `CN1C(=O)CCN(c2ccc(Cl)cc2)C1=O` [Compound 3, 1-(4-chlorophenyl)-3-methyl-dihydrouracil], for which the values for the minimal effective dose in the data set on male dd-strain mice [1] and in the data set with male dd-strain mice [2] were 75 mg/kg and 200 mg/kg, respectively. Besides, the LD50 at 168 h in the data set “Acute toxicity test” is > 300 mg/kg.

On to `CN1CCC(=O)N(c2ccccc2C(F)(F)F)C1=O` [Compound 35, 1-methyl-3-(2-trifluoromethylphenyl)-dihydrouracil], for which, in the data set on male Carworth Farm mice, the minimal effective dose was > 100 mg/kg.

For the compound `O=C1CCN(c2ccc(Cl)cc2)C(=O)N1` [Compound 32, 1-(4-chlorophenyl)-dihydrouracil], the minimal effective dose with male Carworth Farm mice was > 100 mg/kg.

Consider `Cc1cc(Cl)ccc1N1CCC(=O)N(C)C1=O` [Compound 9, 1-(2-methyl-4-chlorophenyl)-3-methyl-dihydrouracil], for which the minimal effective dose in the data set with male dd-strain mice [1] amounted to 150 mg/kg; with male dd-strain mice [2], 200 mg/kg. Also, the 50% lethal dose (LD50) at 168 h in the data set “Acute toxicity test” was > 300 mg/kg.

For the origin of these results see patent US4588729A, “Treating convulsions with dihydrouracil derivatives” (Kyowa Hakko Kogyo Co., Ltd., priority 1984, dated 1986).
